Patent publication US5763413A, “Lewis-associated compound, process for producing the same, and anti-inflammatory” (MECT Corporation, priority 1993, dated 1998)

How the values were obtained:
passive Arthus reaction [1] = assay: Anti-inflammatory activity test: passive Arthus reaction (Example of Test 2); assay type: in vivo, male guinea pigs of the Hartley strain; details: Table 21, 30 min before antigen
Procedure: Example of Test 2 (Anti-inflammatory Activity Test)
(§1) Male guinea pigs of the Hartley strain weighing 200~250 g were used.
(2) Experimental Materials
(§2) The anti-ovalbumin rabbit serum (PCA titer=1/80,000) and ovalbumin were used as the antiserum and antigen, respectively.
(§3) The passive Arthus reaction was performed according to the method of Katayama et al. [Katayama, S. et al., Arzeim-Forsch., 31, 1196 (1981)]. That is, guinea pigs were sensitized by an intravenous injection of said anti-ovalbumin rabbit serum (2.5 ml/kg). Thirty minutes after the injection, the Arthus reaction was induced by the intradermal injection of an antigen solution (0.05 ml) containing 0.10 mg of ovalbumin to the abdomen shaved the day before. Two hours after the antigen challenge, the area of intradermal bleeding was measured and used as the index representing the grade of inflammatory reaction. Test compounds were intravenously injected 30 min before the antigen injection. Four guinea pigs per each group were used.
(§4) The percent inhibi- is expressed as the bleeding area of the challenged site (%) of the animal group injected with each compound relative to that (100%) of the group administered with the physiological saline.

[2] = Simple acute toxicity test (intravenous injection); assay type: in vivo, male mice of ddY strain; details: i.v. (tail vein), ddY mice
Procedure: Example of Test 1 (Simple Acute Toxicity Test)
The simple acute toxicity test was carried out by an intravenous injection of compounds of the present invention.
Into the tail vein of male mice of ddY strain weighing 18~20 g which have been kept under the conditions at the temperature of 23°±1° C. and in the humidity of 55 ±7% were injected a solution of the compound of the present invention dissolved in the physiological saline containing the desired dose per 20 g body weighing 0.2 ml. Two dosages of which were 50 mg/kg and 500 mg/kg body weight were used.

passive Arthus reaction [3] = assay: Anti-inflammatory activity test, carried out as Example of Test 2 (Example of Test 3); assay type: in vivo, male guinea pigs of the Hartley strain; details: Table 22, i.v.
Procedure: as §1, §2, §3, §4
The anti-inflammatory activity test of compounds of the present invention was similarly carried out as in the case of Example of Test 2.

Row | Structure (SMILES) | Percent inhibition (passive Arthus reaction) (passive Arthus reaction [1]; 1 mg/kg i.v.) [%] | Percent inhibition (passive Arthus reaction) (passive Arthus reaction [1]; 3 mg/kg i.v.) [%] | Mortality ([2]; 50 mg/kg) | Mortality ([2]; 500 mg/kg) | Percent inhibition (passive Arthus reaction) (passive Arthus reaction [1]; 1 mg/kg i.v., 1 mg/kg) [%] | Percent inhibition (passive Arthus reaction) (passive Arthus reaction [1]; 3 mg/kg i.v., 3 mg/kg) [%] | Percent inhibition (passive Arthus reaction) (passive Arthus reaction [3]; 0.01 mg/kg) [%] | Percent inhibition (passive Arthus reaction) (passive Arthus reaction [3]; 0.1 mg/kg) [%] | Percent inhibition (passive Arthus reaction) (passive Arthus reaction [3]; 1 mg/kg) [%]
1 | CCCOC1OC(CO)C(OC2OC(CO)C(O)C(OS(=O)(=O)[O-])C2O)C(OC2OC(C)C(O)C(O)C2O)C1NC(C)=O.[Na+] (stereo not drawn) [Compound 10] | 25.5 ± 17.4 | 64.8 ± 3.4 | 0/3 | 0/3 | – | – | – | – | –
2 | CCCOC1OC(CO)C(OC2OC(CO)C(OS(=O)(=O)[O-])C(OS(=O)(=O)[O-])C2OS(=O)(=O)[O-])C(OC2OC(C)C(O)C(O)C2O)C1NC(C)=O.[Na+].[Na+].[Na+] (stereo not drawn) [Compound 12] | 45.3 ± 6.7 | 67.8 ± 5.2 | 0/3 | 0/3 | – | – | – | – | –
3 | CCCOC1OC(CO)C(OC2OC(CO)C(O)C(OCC(=O)[O-])C2O)C(OC2OC(C)C(O)C(O)C2O)C1NC(C)=O.[Na+] (stereo not drawn) [Compound 17] | 45.5 ± 3.5 | 14.9 ± 14.5 | 0/3 | 0/3 | – | – | – | – | –
4 | CCCOC1OC(CO)C(OC2OC(CO)C(O)C(OCC(=O)[O-])C2OCC(=O)[O-])C(OC2OC(C)C(O)C(O)C2O)C1NC(C)=O.[Na+].[Na+] (stereo not drawn) [Compound 18] | 75.7 ± 3.9 | 60.8 ± 9.8 | 0/3 | 0/3 | – | – | – | – | –
5 | CCCOC1OC(CO)C(OC2OC(C)C(O)C(O)C2O)C(OC2OC(CO)C(O)C(OS(=O)(=O)[O-])C2O)C1NC(C)=O.[Na+] (stereo not drawn) [Compound 26] | 75.5 ± 1.6 | 77.3 ± 8.0 | 0/3 | 0/3 | – | – | – | – | –
6 | CCCOC1OC(CO)C(OC2OC(C)C(O)C(O)C2O)C(OC2OC(CO)C(O)C(OCC(=O)[O-])C2O)C1NC(C)=O.[Na+] (stereo not drawn) [Compound 30] | 21.0 ± 5.9 | 15.4 ± 5.3 | 0/3 | 0/3 | – | – | – | – | –
7 | CCCOC1OC(CO)C(OC2OC(C)C(O)C(O)C2O)C(OC2OC(CO)C(O)C(OCC(=O)[O-])C2OCC(=O)[O-])C1NC(C)=O.[Na+].[Na+] (stereo not drawn) [Compound 31] | 74.5 ± 6.7 | 15.9 ± 6.4 | 0/3 | 0/3 | – | – | – | – | –
8 | CCCOC1OC(CO)C(OC2OC(C)C(O)C(O)C2O)C(OC2OC(CO)C(O)C(O)C2OCC(=O)[O-])C1NC(C)=O.[Na+] (stereo not drawn) [Compound 32] | 61.0 ± 4.2 | 57.4 ± 8.7 | 0/3 | 0/3 | – | – | – | – | –
9 | CCCOC1OC(CO)C(OC2OC(CO)C(O)C(OC3(C(=O)[O-])CC(O)C(NC(C)=O)C(C(O)C(O)CO)O3)C2O)C(OC2OC(C)C(O)C(O)C2O)C1NC(C)=O.[Na+] (stereo not drawn) [Compound 40] | – | – | 0/3 | 0/3 | 47.3 ± 7.4 | 63.5 ± 8.3 | – | – | –
10 | CCCCCCCCCCCCCCCCCCCCCCCC(=O)NC(COC1OC(CO)C(OC2OC(CO)C(O)C(OC3(C(=O)[O-])CC(O)C(NC(C)=O)C(C(O)C(O)CO)O3)C2O)C(OC2OC(C)C(O)C(O)C2O)C1NC(C)=O)C(O)CCCCCCCCCCCCCCC.[Na+] (stereo not drawn) [Compound 46] | 25.6 ± 11.3 | 74.4 ± 16.3 | 0/3 | 0/3 | – | – | – | – | –
11 | CC(=O)NC1C(O)CC(OC2C(O)C(CO)OC(OC3C(CO)OC(OCC4OC(O)C(O)C(O)C4O)C(NC(C)=O)C3OC3OC(C)C(O)C(O)C3O)C2O)(C(=O)[O-])OC1C(O)C(O)CO.[Na+] (stereo not drawn) [Compound 53] | 44.8 ± 15.0 | 58.7 ± 9.5 | 0/3 | 0/3 | – | – | – | – | –
12 | CC(=O)NC1C(O)CC(OC2C(O)C(CO)OC(OC3C(CO)OC(OC4C(O)C(O)OC(CO)C4O)C(NC(C)=O)C3OC3OC(C)C(O)C(O)C3O)C2O)(C(=O)[O-])OC1C(O)C(O)CO.[Na+] (stereo not drawn) [Compound 62] | 41.9 ± 8.9 | 57.4 ± 7.3 | 0/3 | 0/3 | – | – | – | – | –
13 | CCCOC1OC(CO)C(OC2OC(C)C(O)C(O)C2O)C(OC2OC(CO)C(O)C(OC3(C(=O)[O-])CC(O)C(NC(C)=O)C(C(O)C(O)CO)O3)C2O)C1NC(C)=O.[Na+] (stereo not drawn) [Compound 90] | – | – | 0/3 | 0/3 | 65.4 ± 8.5 | 69.6 ± 6.3 | – | – | –
14 | CCCOC1OC(CO)C(OC2OC(CO)C(O)C(OC3(C(=O)[O-])CC(O)C(NC(C)=O)C(C(O)C(O)CO)O3)C2O)C(OC2OC(C)C(O)C(O)C2O)C1NC(C)=O.[Na+] (stereo not drawn) [Compound 121] | – | – | 0/3 | 0/3 | 42.1 ± 8.3 | 59.8 ± 5.3 | – | – | –
15 | CCCOC1OC(CO)C(OC2OC(C)C(O)C(O)C2O)C(OC2OC(CO)C(O)C(OC3(C(=O)[O-])CC(O)C(NC(C)=O)C(C(O)C(O)CO)O3)C2O)C1NC(C)=O.[Na+] (stereo not drawn) [Compound 123] | – | – | 0/3 | 0/3 | 76.8 ± 12.0 | 84.5 ± 5.1 | – | – | –
16 | COc1ccc(OC2OC(CO)C(OC3OC(CO)C(O)C(OS(=O)(=O)[O-])C3OC(=O)C(C)(C)C)C(OC3OC(C)C(O)C(O)C3O)C2OC(=O)C(C)(C)C)cc1.[Na+] (stereo not drawn) [Compound 142] | – | – | – | – | – | – | -3.3 ± 2.7 | 57.6 ± 12.6 | 84.8 ± 4.6
17 | COc1ccc(OC2OC(CO)C(OC3OC(CO)C(O)C(OS(=O)(=O)[O-])C3O)C(OC3OC(C)C(O)C(O)C3O)C2O)cc1.[Na+] (stereo not drawn) [Compound 143] | – | – | – | – | – | – | 84.1 ± 5.2 | 52.5 ± 12.2 | 70.1 ± 1.8
18 | COc1ccc(OC2OC(CO)C(OC3OC(CO)C(OS(=O)(=O)[O-])C(O)C3O)C(OC3OC(C)C(O)C(O)C3O)C2O)cc1.[Na+] (stereo not drawn) [Compound 144] | – | – | – | – | – | – | -15.2 ± 6.7 | 22.0 ± 30.1 | 23.9 ± 14.7
19 | CCCOC1OC(CO)C(OC2OC(C)C(O)C(O)C2O)C(OC2OC(CO)C(O)C(O)C2OS(=O)(=O)[O-])C1NC(C)=O.[Na+] (stereo not drawn) [Compound 175] | – | – | – | – | – | – | 44.6 ± 20.1 | 62.5 ± 16.1 | 67.1 ± 4.4
